# Earlier results as cited in patent US20130274214A1, “METHOD FOR TREATING BLEPHARITIS” (INSPIRE PHARMACEUTICALS, INC., priority 2010, published 2013).
# Test system: meibomian gland secretions (meibum)
# Settings: daily topical administration to the ocular surface; subjects with meibomian gland dysfunction
structure (smiles),measurement,value
CC[C@H]1OC(=O)[C@H](C)[C@@H](O[C@H]2C[C@@](C)(OC)[C@@H](O)[C@H](C)O2)[C@H](C)[C@@H](O[C@@H]2O[C@H](C)C[C@H](N(C)C)[C@H]2O)[C@](C)(O)C[C@@H](C)CN(C)[C@H](C)[C@@H](O)[C@]1(C)O [azithromycin],physicochemical properties of the meibum,improved the physicochemical properties of the meibum towards that of normal subjects
